In PMC12435401 (Chemistry & Biodiversity, 2025):

Molecular target: acetylcholinesterase (AChE) (Electrophorus electricus, UniProt O42275)
Assay: Ellman's assay with AChE isolated from Electrophorus electricus
Format: biochemical

Sequence of acetylcholinesterase (AChE) (O42275 24-633): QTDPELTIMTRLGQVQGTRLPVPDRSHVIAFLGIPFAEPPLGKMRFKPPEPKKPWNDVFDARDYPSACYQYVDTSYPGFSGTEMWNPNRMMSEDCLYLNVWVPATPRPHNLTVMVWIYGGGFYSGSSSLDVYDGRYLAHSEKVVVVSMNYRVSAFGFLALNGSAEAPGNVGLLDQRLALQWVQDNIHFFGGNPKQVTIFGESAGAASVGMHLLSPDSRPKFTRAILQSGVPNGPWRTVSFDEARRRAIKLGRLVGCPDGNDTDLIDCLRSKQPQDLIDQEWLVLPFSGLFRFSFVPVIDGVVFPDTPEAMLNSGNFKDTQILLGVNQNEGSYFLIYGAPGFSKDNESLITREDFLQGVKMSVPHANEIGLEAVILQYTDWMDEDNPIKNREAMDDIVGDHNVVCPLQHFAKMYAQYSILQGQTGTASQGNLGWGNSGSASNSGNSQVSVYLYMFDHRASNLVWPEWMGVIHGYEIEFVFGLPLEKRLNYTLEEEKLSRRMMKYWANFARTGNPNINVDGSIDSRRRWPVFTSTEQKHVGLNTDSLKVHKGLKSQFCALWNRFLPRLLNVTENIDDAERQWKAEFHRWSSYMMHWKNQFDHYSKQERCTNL

C[C@@H]1CC(=O)O[C@H]2C[C@@]3(C)[C@@H]4CC[C@H]5C(C)(C)C(=O)CC[C@@]56C[C@@]46CC[C@]3(C)[C@@H]12 [compound 6]
IC50: 53.5 ± 2.53 µM
